Experimental data as given in ChEMBL document CHEMBL4765227, “Hit to lead optimization of a series of N-[4-(1,3-benzothiazol-2-yl)phenyl]acetamides as monoacylglycerol lipase inhibitors with potential anticancer activity” (Eur J Med Chem, 2016).

Legend:
T47D = experiment: Growth inhibition of human T47D cells at 10 uM incubated for 48 hrs by sulforhodamine B assay relative to control; type: functional; conditions: read-out: GI
SNB-75 = experiment: Growth inhibition of human SNB-75 cells at 10 uM incubated for 48 hrs by sulforhodamine B assay relative to control; type: functional; conditions: read-out: GI
HCT-15 = experiment: Growth inhibition of human HCT-15 cells at 10 uM incubated for 48 hrs by sulforhodamine B assay relative to control; type: functional; conditions: read-out: GI
SNB-19 = experiment: Growth inhibition of human SNB-19 cells at 10 uM incubated for 48 hrs by sulforhodamine B assay relative to control; type: functional; conditions: read-out: GI
A498 = experiment: Growth inhibition of human A498 cells at 10 uM incubated for 48 hrs by sulforhodamine B assay relative to control; type: functional; conditions: read-out: GI
EKVX = experiment: Growth inhibition of human EKVX cells at 10 uM incubated for 48 hrs by sulforhodamine B assay relative to control; type: functional; conditions: read-out: GI
SK-MEL-2 = experiment: Growth inhibition of human SK-MEL-2 cells at 10 uM incubated for 48 hrs by sulforhodamine B assay relative to control; type: functional; conditions: read-out: GI
HOP-92 = experiment: Growth inhibition of human HOP-92 cells at 10 uM incubated for 48 hrs by sulforhodamine B assay relative to control; type: functional; conditions: read-out: GI
SW-620 = experiment: Growth inhibition of human SW-620 cells at 10 uM incubated for 48 hrs by sulforhodamine B assay relative to control; type: functional; conditions: read-out: GI
SF-268 = experiment: Growth inhibition of human SF-268 cells at 10 uM incubated for 48 hrs by sulforhodamine B assay relative to control; type: functional; conditions: read-out: GI
RPMI-8226 = experiment: Growth inhibition of human RPMI-8226 cells at 10 uM incubated for 48 hrs by sulforhodamine B assay relative to control; type: functional; conditions: read-out: GI
Monoglyceride lipase = molecular target: T1, Monoglyceride lipase (Homo sapiens, UniProt Q99685); experiment: Inhibition of human MAGL using 4-Nitrophenylacetate as substrate
T1 sequence (Q99685 whole entry): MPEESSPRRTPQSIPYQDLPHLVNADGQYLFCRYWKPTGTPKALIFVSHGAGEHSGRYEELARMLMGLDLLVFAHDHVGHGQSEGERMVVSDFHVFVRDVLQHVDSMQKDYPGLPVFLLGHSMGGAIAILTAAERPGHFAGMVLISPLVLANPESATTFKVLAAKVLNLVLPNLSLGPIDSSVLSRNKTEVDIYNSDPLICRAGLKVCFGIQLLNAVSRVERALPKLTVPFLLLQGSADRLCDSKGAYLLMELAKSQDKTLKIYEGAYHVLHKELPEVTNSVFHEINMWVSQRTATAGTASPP

OVCAR-5 = experiment: Growth inhibition of human OVCAR-5 cells at 10 uM incubated for 48 hrs by sulforhodamine B assay relative to control; type: functional; conditions: read-out: GI
HCC 2998 = experiment: Growth inhibition of human HCC 2998 cells at 10 uM incubated for 48 hrs by sulforhodamine B assay relative to control; type: functional; conditions: read-out: GI
UACC-257 = experiment: Growth inhibition of human UACC-257 cells at 10 uM incubated for 48 hrs by sulforhodamine B assay relative to control; type: functional; conditions: read-out: GI
SK-MEL-28 = experiment: Growth inhibition of human SK-MEL-28 cells at 10 uM incubated for 48 hrs by sulforhodamine B assay relative to control; type: functional; conditions: read-out: GI
Malme-3M = experiment: Growth inhibition of human Malme-3M cells at 10 uM incubated for 48 hrs by sulforhodamine B assay relative to control; type: functional; conditions: read-out: GI

SMILES	inhibition of growth at 10 µM (T47D) [%]	inhibition of growth at 10 µM (SNB-75) [%]	inhibition of growth at 10 µM (HCT-15) [%]	inhibition of growth at 10 µM (SNB-19) [%]	inhibition of growth at 10 µM (A498) [%]	inhibition of growth at 10 µM (EKVX) [%]	inhibition of growth at 10 µM (SK-MEL-2) [%]	inhibition of growth at 10 µM (HOP-92) [%]	inhibition of growth at 10 µM (SW-620) [%]	inhibition of growth at 10 µM (SF-268) [%]	inhibition of growth at 10 µM (RPMI-8226) [%]	IC50 (Monoglyceride lipase) [µM]	inhibition of growth at 10 µM (OVCAR-5) [%]	inhibition of growth at 10 µM (HCC 2998) [%]	inhibition of growth at 10 µM (UACC-257) [%]	inhibition of growth at 10 µM (SK-MEL-28) [%]	inhibition of growth at 10 µM (Malme-3M) [%]
O=C(CN1C(=O)C(=O)c2ccccc21)Nc1ccc(-c2nc3ccccc3s2)cc1	29.4	9.83	2.95	5.55	10.7	14.2	0.87	32.6	-0.74	10.9	15	> 100	-12.7	-1.9	-12.4	-15.4	-2.34
O=C(CN(c1ccccc1)c1ccccc1)Nc1ccc(-c2nc3ccccc3s2)cc1	13.6	2.08	-8.11	-7.16	6.91	-9.19	-0.42	11.2	-3.33	-3.74	-15.6	> 100	-6.47	-1.62	-8.16	-10.5	-3.98
